Measured values: the NIST ThermoML archive (doi:10.1021/acs.jced.7b00002)

Assay: xn = mol fraction of the nth substance listed
Details: 97.6 kPa, Liquid; for viscosity: Capillary tube (Ostwald / Ubbelohde) method; for mass density: Vibrating tube method

CCCCCCCC[n+]1ccn(C)c1.[Cl-] [1-methyl-3-octylimidazolium chloride] + CN(C)C=O
Details | mass density [kg/m3] | viscosity [mPa·s]
303.15 K, x1 = 0.119 | 965.57 | 2.56
303.15 K, x1 = 0.241 | 979.1 | 8.9
303.15 K, x1 = 0.321 | 985.99 | 18.99
303.15 K, x1 = 0.424 | 992 | 49.08
303.15 K, x1 = 0.557 | 996.35 | 160.48
303.15 K, x1 = 0.739 | 1002.01 | 766.79
303.15 K, x1 = 0.858 | 1004.31 | 1892.8
303.15 K, x1 = 1 | 1006.2 | 7339.7
308.15 K, x1 = 0.119 | 961.27 | 2.32
308.15 K, x1 = 0.241 | 975.4 | 7.69
308.15 K, x1 = 0.321 | 982.47 | 15.91
308.15 K, x1 = 0.424 | 988.63 | 39.48
308.15 K, x1 = 0.557 | 993.19 | 122.67
308.15 K, x1 = 0.739 | 998.95 | 536.62
308.15 K, x1 = 0.858 | 1001.36 | 1258
308.15 K, x1 = 1 | 1003.33 | 4272.9
313.15 K, x1 = 0.119 | 957.31 | 2.13
313.15 K, x1 = 0.241 | 971.7 | 6.75
313.15 K, x1 = 0.321 | 979.05 | 13.51
313.15 K, x1 = 0.424 | 985.26 | 32.2
313.15 K, x1 = 0.557 | 989.93 | 95.06
313.15 K, x1 = 0.739 | 995.95 | 381.17
313.15 K, x1 = 0.858 | 998.42 | 856.69
313.15 K, x1 = 1 | 1000.48 | 2766.9
318.15 K, x1 = 0.119 | 953.45 | 1.95
318.15 K, x1 = 0.241 | 967.99 | 5.96
318.15 K, x1 = 0.321 | 975.72 | 11.56
318.15 K, x1 = 0.424 | 981.9 | 26.5
318.15 K, x1 = 0.557 | 986.82 | 74.18
318.15 K, x1 = 0.739 | 992.97 | 277.21
318.15 K, x1 = 0.858 | 995.47 | 596.05
318.15 K, x1 = 1 | 997.64 | 1788.6
323.15 K, x1 = 0.119 | 949.36 | 1.81
323.15 K, x1 = 0.241 | 964.31 | 5.29
323.15 K, x1 = 0.321 | 972.37 | 10
323.15 K, x1 = 0.424 | 978.56 | 22.11
323.15 K, x1 = 0.557 | 983.92 | 59.06
323.15 K, x1 = 0.739 | 990 | 206.44
323.15 K, x1 = 0.858 | 992.57 | 426.48
323.15 K, x1 = 1 | 994.82 | 1198.7
328.15 K, x1 = 0.119 | – | 1.67
328.15 K, x1 = 0.241 | – | 4.75
328.15 K, x1 = 0.321 | – | 8.72
328.15 K, x1 = 0.424 | – | 18.67
328.15 K, x1 = 0.557 | – | 47.65
328.15 K, x1 = 0.739 | – | 156.59
328.15 K, x1 = 0.858 | – | 312.38
328.15 K, x1 = 1 | – | 828.3
